# According to US20260055110A1 (Azura Ophthalmics Ltd., priority 2021, published 2026):
# Key:
# [1] = biological target: T1, glucocorticoid receptor (GR) (Homo sapiens, UniProt P04150); assay: Glucocorticoid Binding Assay, GR (h) (agonist radioligand); conditions: IM9 cytosol, 3H-dexamethasone competitive binding
# T1 construct: by mixing 1 mg of IM9 cytosol; host or cells: IM9 human lymphoblast cell cytosol
# T1 sequence (P04150 1-777): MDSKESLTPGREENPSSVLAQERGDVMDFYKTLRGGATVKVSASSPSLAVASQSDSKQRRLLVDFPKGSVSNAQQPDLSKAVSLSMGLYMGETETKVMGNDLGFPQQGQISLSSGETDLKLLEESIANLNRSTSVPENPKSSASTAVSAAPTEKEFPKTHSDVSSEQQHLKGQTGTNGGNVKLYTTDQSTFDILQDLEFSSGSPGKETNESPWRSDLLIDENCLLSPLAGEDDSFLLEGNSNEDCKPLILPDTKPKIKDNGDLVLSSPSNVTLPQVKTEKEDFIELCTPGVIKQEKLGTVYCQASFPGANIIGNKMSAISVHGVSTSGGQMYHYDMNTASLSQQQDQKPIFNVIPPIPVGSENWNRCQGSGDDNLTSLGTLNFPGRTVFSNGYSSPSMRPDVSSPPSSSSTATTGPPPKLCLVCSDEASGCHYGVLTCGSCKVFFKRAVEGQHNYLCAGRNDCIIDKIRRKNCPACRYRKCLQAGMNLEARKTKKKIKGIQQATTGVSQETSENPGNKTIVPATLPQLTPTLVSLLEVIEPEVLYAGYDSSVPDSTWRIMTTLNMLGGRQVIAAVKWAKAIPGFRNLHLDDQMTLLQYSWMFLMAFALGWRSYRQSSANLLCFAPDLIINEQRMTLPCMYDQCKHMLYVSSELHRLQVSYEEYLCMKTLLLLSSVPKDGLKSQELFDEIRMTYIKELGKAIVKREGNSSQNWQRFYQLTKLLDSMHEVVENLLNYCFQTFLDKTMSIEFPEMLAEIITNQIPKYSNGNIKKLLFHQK
# Procedure: GR (h) (agonist radioligand) assay performed by Eurofins Cerep, France using a method similar to the one described hereinbelow.
# The human lymphoblast cell line IM9 is used as a source of the soluble glucocorticoid receptor (GR). The cells are grown to densities of 1 to 10×10^5 cells per milliliter in RPMI 1640 media containing 10% fetal bovine serum, penicillin (100 U/ml), streptomycin (100 μg/ml), and 2 mM L-glutamine at […] and 7% CO2 in a humidified incubator. The IM9 cells are harvested from the media by centrifugation for 10 minutes at 1500 g. Cells are washed in 12 volumes of Dulbecco's phosphate-buffered saline (PBS) and re-pelleted. Washed cells are resuspended in five to six volumes (per volume of packed cells) of homogenization buffer (10 mM TES, 10 mM sodium molybdate, 1 mM EDTA, pH 7.4, 20 mM 2-mercaptoethanol, and 10% glycerol), and the cells are broken by nitrogen cavitation using 2×15 minutes at 600 to 750 psi nitrogen in the N2 cavitator at 0° C. Cell disruption is confirmed by Hoffman contrast microscopy using a Nikon Diaphot. The broken cell preparation is then centrifuged at 27,000 g for 15 minutes, and the resultant supernatant was centrifuged at 103,000 g for 60 minutes at 4° C. The amount of protein in the supernatant fraction is determined using a BCA assay kit with a bovine serum albumin standard. Aliquots of the supernatant fraction are snap frozen in a dry ice-acetone bath and stored at −70° C. Competitive binding assays are done in duplicate in homogenization buffer (total volume of […]) by mixing 1 mg of IM9 cytosol, 0.05/ρCi (3 nM) of ^3H-dexamethasone, and Compounds described herein (10^−5 to 10^−11 M). After incubation at 0° C. for 16 to 18 hours, the assay is stopped by the addition of […] of a charcoal-dextran mixture (2% activated charcoal, 0.5% dextran in 10 mM Tris, 1 mM EDTA, pH 7.4). The assay mixture is further incubated at 0° C. for 10 minutes before being centrifuged for 5 minutes at 8200 g. A 100-μl sample of the supernatant (protein-bound steroid fraction) is assayed for radioactivity by liquid scintillation spectrometry, and the IC50 values were determined graphically.
# In some instances, an ester is active in the glucocorticoid binding assay. In some instances, an ester retains activity, such as when attached to a keratolytic agent (or a radical thereof), in the glucocorticoid binding assay.
# uveitis = conditions: humans and/or murine models; Gangaputra 2009; cited from earlier work
# [2] = test system: psoriasis, alopecia, uveitis; conditions: murine models; Mesa 2010, Falto-Aizpurua et al 2014, Lin et al 2021; cited from earlier work
# [3] = test system: psoriasis, alopecia, dermatitis, dry eye disease; conditions: humans and/or murine models; literature; cited from earlier work
# [4] = test system: dermatitis, keratoconjunctivitis, dry eye disease; conditions: humans and/or dogs; literature; cited from earlier work
# alopecia = conditions: humans and murine models; NCT02974868; cited from earlier work
# Rabbit Cornea Esterase = assay: Rabbit Cornea Homogenate Stability Assay (Rabbit Cornea Esterase Assay); assay type: in vitro ADME; conditions: Table 13, rabbit breed not given
# Procedure: Example 1: Rabbit Cornea Homogenate Stability Assay […]
# Three to four rabbit corneas (e.g., New Zealand Whites (NZW) or Dutch Belted (DB)) of approx. 50 mg each were sliced and scraped with a scalpel and tweezers until reduced to small (1-3 mm), thin pieces. These were transferred into a glass vial containing approximately 2 mL of cold DPBS pH 7.4 buffer.
# Sample was cooled intermittently on ice and shear homogenized for 3 minutes, then centrifuged for 3 min at 13,000 g. The supernatant was pipetted off into a vial, and total protein concentration determined at 280 nm. Sample was stored at −78° C.
# 10 mM Compound DMSO stocks were diluted to 10 μM in a glass vial: 10 μL of 10 mM Compound stock was added to 9,990 μl 50 mM DPBS, pH 7.4 buffer. Esterase homogenate was diluted to 300 ng/μl and 900 ng/μL in DPBS.
# A heater shaker was set to 37° C. Into a suitable 96 well plate (Run Plate), 70 μL of 300 or 900 ng/μl esterase homogenate was pipetted into two rows as compounds were analyzed in duplicate (2 min, 5 min, 10 min, 20 min and 45 min). The plate was sealed and then warmed at 37° C. for 5 min.
# Two 96 deep-well plates were put on ice (Kill Plates). To these, 990 μL of 50:50 MeCN—H2O were added to required rows, labelled 0 min 2 min, 5 min, 10 min, 20 min and 45 min. The plates were covered to minimize evaporation.
# To both rows of the Run Plate, 70 μL of 10 μM compound solution was added. At the appropriate time point, 10 μL of the assay mixture was added to the matching kill plate well containing 990 μL of 50:50 cold MeCN—H2O. Samples were analyzed as soon as practicable by UPLC-MS (Waters Xevo TQ-S).
# A heater shaker was set to 37° C. Into a suitable 96 well plate (Run Plate), 80 μL of 300 or 900 ng/μL esterase homogenate was pipetted into two rows as compounds were analyzed in duplicate (2 min, 5 min, 10 min, 20 min and 45 min). The plate was sealed and then warmed at 37° C. for 5 min.
# Two 96 shallow-well plates were placed on ice (Kill Plates). To these, 180 μL of 60:40 MeCN-H2O+0.1% acetic acid are added to required rows. The plates were sealed to minimize evaporation.
# To both rows of the Run Plate, 80 μL of 10 μM compound solution was added. At the appropriate time point, 20 μL of the assay mixture was added to the matching kill plate well containing 180 μL of 60:40 cold MeCN-H2O+0.1% acetic acid. For lipoic acid analysis, samples were analyzed as soon as practicable by LCMS (Waters Xevo TQ-S). For parent conjugate and parent analysis the samples are diluted further 1 in 10: 20 μL supernatant is added to 180 μL of 50:50 MeCN—H2O.
# [5] = test system: keratoconjunctivitis and dry eye disease; conditions: humans and/or dogs; Kravetz de Oliveira 2019; cited from earlier work
# dry eye = conditions: murine model; Sadrai et al 2012; cited from earlier work
smiles,measurement,setting,value
"CC(=O)N1[C@H](C(=O)O[C@]2(C(=O)O)[C@H](C)C[C@H]3[C@@H]4C[C@H](F)C5=CC(=O)C=C[C@]5(C)[C@@]4(F)[C@@H](O)C[C@@]32C)CSC1(C)C [Chemical Synthesis Example 70, (6S,8S,9R,10S,11S,13S,14S,16R,17R)-17-(((R)-3-Acetyl-2,2-dimethylthiazolidine-4-carbonyl)oxy)-6,9-difluoro-11-hydroxy-10,13,16-trimethyl-3-oxo-6,7,8,9,10,11,12,13,14,15,16,17-dodecahydro-3H-cyclopenta[a]phenanthrene-17-carboxylic acid]",EC50,[1],> 100 nM
"CN(Cc1cnc2nc(N)nc(N)c2n1)c1ccc(C(=O)N[C@@H](CCC(=O)O)C(=O)O)cc1 [methotrexate, (2S)-2-[(4-{[(2,4-Diaminopteridin-6-yl)methyl](methyl)amino}benzoyl)amino]pentanedioic acid]",objective signs of uveitis,uveitis,improvements in objective signs
"N#CC[C@H](C1CCCC1)n1cc(-c2ncnc3[nH]ccc23)cn1 [Ruxolitinib, (3R)-3-Cyclopentyl-3-[4-(7H-pyrrolo[2,3-d]pyrimidin-4-yl)pyrazol-1-yl]propanenitrile]","objective signs of psoriasis, alopecia and uveitis",[2],improvements in objective signs
"C[C@@H]1CCN(C(=O)CC#N)C[C@@H]1N(C)c1ncnc2[nH]ccc12 [Tofacitinib, 3-[(3R,4R)-4-Methyl-3-[methyl(7H-pyrrolo[2,3-d]pyrimidin-4-yl)amino]piperidin-1-yl]-3-oxopropanenitrile]","objective signs of psoriasis, alopecia, dermatitis and dry eye disease",[3],improvements in objective signs
"CNS(=O)(=O)C[C@H]1CC[C@H](N(C)c2ncnc3[nH]ccc23)CC1 [Oclacitinib, N-methyl{trans-4-[methyl(7H-pyrrolo[2,3-d]pyrimidin-4-yl)amino]cyclohexyl}methanesulfonamide]","objective signs of dermatitis, keratoconjunctivitis and dry eye disease",[4],improvements in objective signs
"C=CC(=O)N1C[C@H](Nc2ncnc3[nH]ccc23)CC[C@@H]1C [Ritlecitinib, 1-((2S,5R)-5-((7H-pyrrolo[2,3-d]pyrimidin-4-yl)amino)-2-methylpiperidin-1-yl)prop-2-en-1-one]",objective signs of alopecia,alopecia,improvements in objective signs
"C[C@@H]1C[C@H]2[C@@H]3C[C@H](F)C4=CC(=O)C=C[C@]4(C)[C@@]3(F)[C@@H](O)C[C@]2(C)[C@@]1(OC(=O)CCCC[C@@H]1CCSS1)C(=O)OCC#N [Compound 73A, Cyanomethyl (6S,8S,9R,10S,11S,13S,14S,16R,17R)-17-((5-((R)-1,2-dithiolan-3-yl)pentanoyl)oxy)-6,9-difluoro-11-hydroxy-10,13,16-trimethyl-3-oxo-6,7,8,9,10,11,12,13,14,15,16,17-dodecahydro-3H-cyclopenta[a]phenanthrene-17-carboxylate]",Esterase (0.15 mg/mL) % parent released after 45 min,Rabbit Cornea Esterase; rabbit cornea homogenate 0.15 mg/mL,A (<25%)
same,Esterase (0.45 mg/mL) % parent released after 45 min,Rabbit Cornea Esterase; rabbit cornea homogenate 0.45 mg/mL,A (<25%)
same,EC50,[1],> 100 nM
"C=CC[C@H]1/C=C(/C)C[C@@H](C)C[C@@H](OC)[C@@H]2O[C@@](O)(C(=O)C(=O)N3CCCCC3C(=O)O[C@H](/C(C)=C/[C@@H]3CC[C@@H](O)[C@H](OC)C3)[C@H](C)[C@@H](O)CC1=O)[C@H](C)C[C@@H]2OC (single isomer, unassigned; (-)) [Tacrolimus]",objective signs of keratoconjunctivitis and dry eye disease,[5],improvements in objective signs
"C[C@@H]1C[C@H]2[C@@H]3C[C@H](F)C4=CC(=O)C=C[C@]4(C)[C@@]3(F)[C@@H](O)C[C@]2(C)[C@@]1(OC(=O)CCCC[C@@H]1CCSS1)C(=O)O [Chemical Synthesis Example 68, (6S,8S,9R,10S,11S,13S,14S,16R,17R)-17-((5-((R)-1,2-Dithiolan-3-yl)pentanoyl)oxy)-6,9-difluoro-11-hydroxy-10,13,16-trimethyl-3-oxo-6,7,8,9,10,11,12,13,14,15,16,17-dodecahydro-3H-cyclopenta[a]phenanthrene-17-carboxylic acid]",EC50,[1],21 nM
"COc1ccc([C@]2(C#N)CC[C@@H](C(=O)O)CC2)cc1OC1CCCC1 [Cilomilast, cis-4-cyano-4-[3-(cyclopentyloxy)-4-methoxyphenyl]cyclohexanecarboxylic acid]",objective signs of dry eye,dry eye,improvements in objective signs
C[C@]12C=CC(=O)C=C1CC[C@H]1[C@@H]3CC[C@](OC(=O)CCCC[C@@H]4CCSS4)(C(=O)OCCl)[C@@]3(C)C[C@H](O)[C@@]12F,EC50,[1],0.35 nM
